Source: US20240228468A1, “N-(6-((OCTAHYDROCYCLOPENTA[C]PYRROL-5-YI)AMINO)PYRIDAZIN-3-YL)PHENYL)CARBOXAMIDE AND (6- ((OCTAHYDROCYCLOPENTA[C]PYRROL-5-YL)AMINO)PYRIDAZIN-3-YL)BENZAMIDE DERIVATIVES AS MACHR M4 ANTAGONISTS FOR THE TREATMENT OF NEURODEGENERATIVE DISORDERS” (Vanderbilt University, priority 2021, published 2024)
Like-named read-outs stand apart in the source and are kept apart here.

Target: T1, Human M4 (Homo sapiens, UniProt P08173)
T1 construct: expressed in transfected cells; host or cells: CHO-K1 (ATCC), co-transfected with chimeric G protein Gqi5
T1 sequence (P08173 1-479): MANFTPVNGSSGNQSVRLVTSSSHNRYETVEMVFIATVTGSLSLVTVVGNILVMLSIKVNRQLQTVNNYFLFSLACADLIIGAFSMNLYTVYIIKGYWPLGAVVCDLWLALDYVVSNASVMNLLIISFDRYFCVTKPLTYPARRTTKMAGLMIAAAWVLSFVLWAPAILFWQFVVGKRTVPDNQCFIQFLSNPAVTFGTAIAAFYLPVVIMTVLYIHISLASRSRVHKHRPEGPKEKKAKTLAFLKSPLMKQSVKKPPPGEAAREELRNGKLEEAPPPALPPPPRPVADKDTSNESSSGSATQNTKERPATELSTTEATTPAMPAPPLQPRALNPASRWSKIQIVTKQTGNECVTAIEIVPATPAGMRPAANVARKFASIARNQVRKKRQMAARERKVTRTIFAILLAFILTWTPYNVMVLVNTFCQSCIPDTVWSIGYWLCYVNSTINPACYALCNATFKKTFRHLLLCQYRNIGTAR
Experiment: mAChR M4 cell-based functional assay (calcium flux, antagonism of EC80 acetylcholine response)
Conditions: for IC50: concentration-dependent decrease of the response elicited by an EC80 concentration of acetylcholine
Method: Human or rat M4 cDNA, along with the chimeric G protein Gqi5, were transfected into Chinese hamster ovary (CHO-K1) cells purchased from the American Type Culture Collection using Lipofectamine2000. M4/Gqi5/CHO cells were grown in Ham's F-12 medium containing 10% heat-inactivated fetal bovine serum (FBS), 20 mM HEPES, 500 μg/mL G418 sulfate, and 200 μg/mL Hygromycin B.
For high throughput measurement of agonist-evoked increases in intracellular calcium, CHO-K1 cells stably expressing muscarinic receptors were plated in growth medium lacking G418 and hygromycin at 15,000 cells/20 μL/well in Greiner 384-well black-walled, tissue culture (TC)-treated, clear-bottom plates (VWR). Cells were incubated overnight at 37° C. and 5% CO2. The next day, cells were washed using an ELX 405 (BioTek) with assay buffer; the final volume was then aspirated to 20 μL. Next, 20 μL of a 2.3 μM stock of Fluo-4/acetoxymethyl ester (Invitrogen, Carlsbad, CA), prepared as a 2.3 mM stock in DMSO and mixed in a 1:1 ratio with 10% (w/v) Pluronic F-127 and diluted in assay buffer, was added to the wells and the cell plates were incubated for 50 min at 37° C. and 5% CO2. Dye was removed by washing with the ELX 405 and the final volume was aspirated to 20 μL. Compound master plates were formatted in a 10 point concentration-response curve (CRC) format (1:3 dilutions) in 100% DMSO with a starting concentration of 10 or 1 mM using a BRAVO liquid handler (Agilent). Test compound CRCs were then transferred to daughter plates (240 nL) using the Echo acoustic plate reformatter (Labcyte, Sunnyvale, CA) and then diluted into assay buffer (40 μL) to a 2× stock using a Thermo Fisher Combi (Thermo Fisher Scientific, Waltham, MA).
Calcium flux was measured using the Functional Drug Screening System (FDSS) 6000 or 7000 (Hamamatsu Corporation, Tokyo, Japan) as an increase in the fluorescent static ratio. Compounds were applied to cells (20 μL, 2×) using the automated system of the FDSS at 2 seconds into the protocol and the data were collected at 1 Hz. At 143 s, 10 μL of an EC20 concentration of the muscarinic receptor agonist acetylcholine was added (5×), followed by the addition of 12 μL of an EC80 concentration of acetylcholine at the 268 s time point (5×). Agonist activity was analyzed as a concentration-dependent increase in calcium mobilization upon compound addition. Positive allosteric modulator activity was analyzed as a concentration-dependent increase in the EC20 acetylcholine response. Antagonist activity was analyzed as a concentration-dependent decrease in the EC80 acetylcholine response; for the purposes of the tables herein, an IC50 (inhibitory concentration 50) was calculated as a concentration-dependent decrease of the response elicited by an EC80 concentration of acetylcholine. Concentration-response curves were generated using a four-parameter logistical equation in XLFit curve fitting software (IDBS, Bridgewater, NJ) for Excel (Microsoft, Redmond, WA) or Prism (GraphPad Software, Inc., San Diego, CA) or the Dotmatics software platform (Dotmatics, Bishop's Stortford, UK).
Compounds were synthesized as described above. Activity (IC50 and Emin) was determined in the mAChR M4 cell-based functional assay as described above and the data are shown in Table 2.

[1] = CHO-K1, read-out: Human M4 Emin (% ACh maximum at 30 μM)
[2] = M4/Gqi5/CHO-K1 cells, % ACh maximum at 30 μM, read-out: Human M4 Emin (% ACh maximum at 30 μM)
[3] = M4/Gqi5/CHO-K1 cells, % ACh maximum at 30 μM

In the case of `[2H]C([2H])(C1CCOCC1)N1C[C@H]2C[C@H](Nc3ccc(-c4cccc(C(=O)NC)c4)nn3)C[C@H]2C1` (single isomer, unassigned) [Compound A42], the remaining activity at 30 µM [1] is reported as 14% and the IC50 (M4/Gqi5/CHO-K1 cells) is reported as 400 nM.

Compound `[2H]C([2H])([2H])NC(=O)c1cccc(-c2ccc(N[C@H]3C[C@@H]4CN(CC5CCOCC5)C[C@@H]4C3)nn2)c1` (single isomer, unassigned) [Compound A47] has a remaining activity at 30 µM [2] of 4% and an IC50 (M4/Gqi5/CHO-K1 cells) of 10 nM.

With `[2H]C([2H])([2H])NC(=O)c1cccc(-c2ccc(N[C@H]3C[C@@H]4CN(C([2H])([2H])C5CCOCC5)C[C@@H]4C3)nn2)c1` (single isomer, unassigned) [Compound A49] the remaining activity at 30 µM [2] was 3% and the IC50 (M4/Gqi5/CHO-K1 cells) was 5.5 nM.

`[2H]C([2H])([2H])NC(=O)c1ccc(-c2ccc(N[C@H]3C[C@@H]4CN(CC5CCOCC5)C[C@@H]4C3)nn2)cc1` (single isomer, unassigned) [Compound A54] was tested, and the remaining activity at 30 µM [2] was 3% and the IC50 (M4/Gqi5/CHO-K1 cells) was 9.9 nM.

Compound `[2H]C([2H])([2H])NC(=O)c1ccc(-c2ccc(N[C@H]3C[C@@H]4CN(C([2H])([2H])C5CCOCC5)C[C@@H]4C3)nn2)cc1` (single isomer, unassigned) [Compound A55] has a remaining activity at 30 µM [1] of 3% and an IC50 (M4/Gqi5/CHO-K1 cells) of 5.1 nM.

For `[2H]C([2H])(C1CCOCC1)N1C[C@H]2C[C@H](Nc3ccc(-c4ccc(C(=O)NC)cc4)nn3)C[C@H]2C1` (single isomer, unassigned) [Compound A64], the remaining activity at 30 µM [2] was 5% and the IC50 (M4/Gqi5/CHO-K1 cells) was 16 nM.

In the case of `[2H]C1([2H])CC(C([2H])([2H])N2C[C@H]3C[C@H](Nc4ccc(-c5cccc(C(=O)NC)c5)nn4)C[C@H]3C2)CC([2H])([2H])O1` (single isomer, unassigned) [Compound A74], the remaining activity at 30 µM [2] is reported as 4% and the IC50 (M4/Gqi5/CHO-K1 cells) is reported as 40 nM.

`[2H]C([2H])(C1CCOCC1)N1C[C@H]2C[C@H](Nc3ccc(-c4ccc(NC(C)=O)cc4)nn3)C[C@H]2C1` (single isomer, unassigned) [Compound B1] was tested, and the “Human M4 Emin (% ACh maximum at 30 μM)” value [3] was 4% and the IC50 (M4/Gqi5/CHO-K1 cells) was 0.4 nM.

For `[2H]C([2H])([2H])C(=O)Nc1ccc(-c2ccc(N[C@H]3C[C@@H]4CN(CC5CCOCC5)C[C@@H]4C3)nn2)cc1` (single isomer, unassigned) [Compound B5], the “Human M4 Emin (% ACh maximum at 30 μM)” value [3] was 3% and the IC50 (M4/Gqi5/CHO-K1 cells) was 2.4 nM.

In the case of `[2H]C([2H])([2H])C(=O)Nc1ccc(-c2ccc(N[C@H]3C[C@@H]4CN(C([2H])([2H])C5CCOCC5)C[C@@H]4C3)nn2)cc1` (single isomer, unassigned) [Compound B6], the “Human M4 Emin (% ACh maximum at 30 μM)” value [3] is reported as 3% and the IC50 (M4/Gqi5/CHO-K1 cells) is reported as 1.2 nM.

In the case of `CC(=O)Nc1ccc(-c2ccc(N[C@H]3C[C@@H]4CN(Cc5ccccc5F)C[C@@H]4C3)nn2)cc1` [Compound A1, N-(4-(6-(((3aR,5s,6aS)-2-(2-fluorobenzyl)octahydrocyclopenta[c]pyrrol-5-yl)amino)pyridazin-3-yl)phenyl)acetamide], the remaining activity at 30 µM [2] is reported as 4% and the IC50 (M4/Gqi5/CHO-K1 cells) is reported as 62 nM.

For `CC(=O)Nc1ccc(-c2ccc(N[C@H]3C[C@@H]4CN(Cc5cccc(F)c5)C[C@@H]4C3)nn2)cc1` [Compound A2, N-(4-(6-(((3aR,5s,6aS)-2-(3-fluorobenzyl)octahydrocyclopenta[c]pyrrol-5-yl)amino)pyridazin-3-yl)phenyl)acetamide], the remaining activity at 30 µM [2] was 4% and the IC50 (M4/Gqi5/CHO-K1 cells) was 51 nM.

`CC(=O)Nc1ccc(-c2ccc(N[C@H]3C[C@@H]4CN(Cc5ccc(F)cc5)C[C@@H]4C3)nn2)cc1` [Compound A3, N-(4-(6-(((3aR,5s,6aS)-2-(4-fluorobenzyl)octahydrocyclopenta[c]pyrrol-5-yl)amino)pyridazin-3-yl)phenyl)acetamide] was tested, and the remaining activity at 30 µM [2] was 2% and the IC50 (M4/Gqi5/CHO-K1 cells) was 10 nM.

`CC(=O)Nc1ccc(-c2ccc(N[C@H]3C[C@@H]4CN(Cc5ccc6c(c5)OCO6)C[C@@H]4C3)nn2)cc1` [Compound A4, N-(4-(6-(((3aR,5s,6aS)-2-(benzo[d][1,3]dioxol-5-ylmethyl)octahydrocyclopenta[c]pyrrol-5-yl)amino)pyridazin-3-yl)phenyl)acetamide] showed a remaining activity at 30 µM [2] of 3% and an IC50 (M4/Gqi5/CHO-K1 cells) of 0.19 nM.

For `CC(=O)Nc1ccc(-c2ccc(N[C@H]3C[C@@H]4CN(Cc5cc(C)n(C)n5)C[C@@H]4C3)nn2)cc1` [Compound A5, N-(4-(6-(((3aR,5s,6aS)-2-((1,5-dimethyl-1H-pyrazol-3-yl)methyl)octahydrocyclopenta[c]pyrrol-5-yl)amino)pyridazin-3-yl)phenyl)acetamide], the remaining activity at 30 µM [2] was 10% and the IC50 (M4/Gqi5/CHO-K1 cells) was 2300 nM.

Work on `CC(=O)Nc1ccc(-c2ccc(N[C@H]3C[C@@H]4CN(CC5(C)COC5)C[C@@H]4C3)nn2)cc1` [Compound A6, N-(4-(6-(((3aR,5s,6aS)-2-((3-methyloxetan-3-yl)methyl)octahydrocyclopenta[c]pyrrol-5-yl)amino)pyridazin-3-yl)phenyl)acetamide] yielded a remaining activity at 30 µM [2] of 16% and an IC50 (M4/Gqi5/CHO-K1 cells) of 4600 nM.

With `CC(=O)Nc1ccc(-c2ccc(N[C@H]3C[C@@H]4CN(Cc5ccccc5C(F)(F)F)C[C@@H]4C3)nn2)cc1` [Compound A7, N-(4-(6-(((3aR,5s,6aS)-2-(2-(trifluoromethyl)benzyl)octahydrocyclopenta [c]pyrrol-5-yl)amino)pyridazin-3-yl)phenyl)acetamide] the remaining activity at 30 µM [2] was 10% and the IC50 (M4/Gqi5/CHO-K1 cells) was 1100 nM.

Compound `CC(=O)Nc1ccc(-c2ccc(N[C@H]3C[C@@H]4CN(Cc5ccccn5)C[C@@H]4C3)nn2)cc1` [Compound A8, N-(4-(6-(((3aR,5s,6aS)-2-(Pyridin-2-ylmethyl)octahydrocyclopenta[c]pyrrol-5-yl)amino)pyridazin-3-yl)phenyl)acetamide] has a remaining activity at 30 µM [1] of 5% and an IC50 (M4/Gqi5/CHO-K1 cells) of 43 nM.

`CN(C)C(=O)c1cc(F)c(F)c(-c2ccc(N[C@H]3C[C@@H]4CN(CC5CCOCC5)C[C@@H]4C3)nn2)c1` [Compound A9, 3,4-difluoro-N,N-dimethyl-5-(6-(((3aR,5s,6aS)-2-((tetrahydro-2H-pyran-4-yl)methyl)octahydrocyclopenta[c]pyrrol-5-yl)amino)pyridazin-3-yl)benzamide] gave a remaining activity at 30 µM [2] of 5% and an IC50 (M4/Gqi5/CHO-K1 cells) of 440 nM.

For `O=C(c1cc(F)c(F)c(-c2ccc(N[C@H]3C[C@@H]4CN(CC5CCOCC5)C[C@@H]4C3)nn2)c1)N1CCOCC1` [Compound A10, (3,4-difluoro-5-(6-(((3aR,5s,6aS)-2-((tetrahydro-2H-pyran-4-yl)methyl)octahydrocyclopenta[c]pyrrol-5-yl)amino)pyridazin-3-yl)phenyl)(morpholino)methanone], the remaining activity at 30 µM [2] was 3% and the IC50 (M4/Gqi5/CHO-K1 cells) was 82 nM.
